Reference: US12570656B2, “Purine compounds for treating disorders” (MARVEL BIOTECHNOLOGY, priority 2020, dated 2026)
Where “and” joins values, the source holds several entries; their conditions need not be identical. Identical values can stand only once. Like-named read-outs stand apart in the source and are kept apart here.

Columns and labels:
[1] = Brain pharmacokinetics and brain/plasma ratio in male CD-1 mice (1 mg/kg i.v.); assay type: in vivo; details: for concentration at 5 min / concentration at 0.25 h / concentration at 0.5 h / concentration at 1 h / concentration at 2 h / concentration at 4 h / concentration at 6 h / concentration at 8 h: intravenous
Method: (§1) Male CD-1 mice were given either bolus 1 mg/kg i.v. or 3 mg/kg p.o. of the indicated compounds and plasma or brain concentrations were measured.
(§2) Where: • C0 concentration extrapolated to time zero following an i.v. dose • tmax time at which maximum concentration is observed • Cmax maximum observed concentration • Apparent t1/2 apparent terminal half-life • AUC0-tlast area under the concentration vs time curve from time 0 to the time of the last measurable concentration • AUC0-inf area under the concentration vs time curve from time 0 to infinity • CL systemic clearance • MRT0-inf mean residence time from time zero to infinity • Vss steady-state volume of distribution • F oral bioavailability=(Dose^iv*AUC^po)/(Dose^po*AUC^iv)*100

[2] = Plasma pharmacokinetics in male CD-1 mice (1 mg/kg i.v. or 3 mg/kg p.o.); details: CD-1, mouse, in vivo
Method: as §1, §2

[3] = male, CD-1, mouse, iv, brain, i.v. 1 mg/kg

**Q.** What does the source list for CCn1c(=O)c2c(nc(/C=C/c3ccc(OC)c(OC)c3)n2C)n(CC)c1=O [Istradefylline, reference compound]?
**A.** Brain concentration ([1]; 1 mg/kg bolus i.v., 5 min, individual animals 1-3): 423 ng/g and 691 ng/g; Brain concentration ([1]; 1 mg/kg bolus i.v., 0.25 h, individual animals 1-3): 474 ng/g and 418 ng/g; Brain concentration ([1]; 1 mg/kg bolus i.v., 0.5 h, individual animals 1-3): 230 ng/g and 235 ng/g; Brain concentration ([1]; 1 mg/kg bolus i.v., 1 h, individual animals 1-3): 209 ng/g and 237 ng/g; Brain concentration ([1]; 1 mg/kg bolus i.v., 2 h, individual animals 1-3): 180 ng/g and 156 ng/g; Brain concentration ([1]; 1 mg/kg bolus i.v., 4 h, individual animals 1-3): 76.8 ng/g and 79.5 ng/g; Brain concentration ([1]; 1 mg/kg bolus i.v., 6 h, individual animals 1-3): 50.1 ng/g and 32.6 ng/g; Brain concentration ([1]; 1 mg/kg bolus i.v., 8 h, individual animals 1-3): 22.2 ng/g and 17.1 ng/g; AUC0-tlast ([1]; brain, i.v. 1 mg/kg): 938 ng·h/g; AUC(0-inf) ([1]; brain, i.v. 1 mg/kg): 1011 ng·h/g; Kp at 5 min ([1]; male, CD-1, mouse, brain and plasma, iv, 1 mg/kg, 1 mg/kg bolus i.v., 5 min, individual animals 1-3, read-out: Brain/plasma concentration ratio): 0.726; Kp at 5 min ([1]; male, CD-1, mouse, brain and plasma, iv, 1 mg/kg, 1 mg/kg bolus i.v., 5 min, read-out: Brain/plasma concentration ratio, Mean): 0.828; Kp at 0.25 h ([1]; male, CD-1, mouse, brain and plasma, iv, 1 mg/kg, 1 mg/kg bolus i.v., 0.25 h, individual animals 1-3, read-out: Brain/plasma concentration ratio): 0.42; Kp at 0.25 h ([1]; male, CD-1, mouse, brain and plasma, iv, 1 mg/kg, 1 mg/kg bolus i.v., 0.25 h, read-out: Brain/plasma concentration ratio, Mean): 0.516; Kp at 0.5 h ([1]; male, CD-1, mouse, brain and plasma, iv, 1 mg/kg, 1 mg/kg bolus i.v., 0.5 h, read-out: Brain/plasma concentration ratio, Mean): 0.483; Kp at 8 h ([1]; male, CD-1, mouse, brain and plasma, iv, 1 mg/kg, 1 mg/kg bolus i.v., 8 h, individual animals 1-3, read-out: Brain/plasma concentration ratio): 2.76; Kp at 8 h ([1]; male, CD-1, mouse, brain and plasma, iv, 1 mg/kg, 1 mg/kg bolus i.v., 8 h, read-out: Brain/plasma concentration ratio, Mean): 2.25; concentration at 5 min ([1]; male, CD-1, mouse, brain, 1 mg/kg, 1 mg/kg bolus i.v., 5 min, individual animals 1-3, read-out: Brain concentration): 545 ng/g; concentration at 5 min ([1]; male, CD-1, mouse, brain, 1 mg/kg, 1 mg/kg bolus i.v., 5 min, read-out: Brain concentration, Mean): 553 ng/g; concentration at 0.25 h ([1]; male, CD-1, mouse, brain, 1 mg/kg, 1 mg/kg bolus i.v., 0.25 h, individual animals 1-3, read-out: Brain concentration): 272 ng/g; concentration at 0.25 h ([1]; male, CD-1, mouse, brain, 1 mg/kg, 1 mg/kg bolus i.v., 0.25 h, read-out: Brain concentration, Mean): 388 ng/g; concentration at 0.5 h ([1]; male, CD-1, mouse, brain, 1 mg/kg, 1 mg/kg bolus i.v., 0.5 h, individual animals 1-3, read-out: Brain concentration): 372 ng/g; concentration at 0.5 h ([1]; male, CD-1, mouse, brain, 1 mg/kg, 1 mg/kg bolus i.v., 0.5 h, read-out: Brain concentration, Mean): 279 ng/g; concentration at 1 h ([1]; male, CD-1, mouse, brain, 1 mg/kg, 1 mg/kg bolus i.v., 1 h, individual animals 1-3, read-out: Brain concentration): 225 ng/g; concentration at 1 h ([1]; male, CD-1, mouse, brain, 1 mg/kg, 1 mg/kg bolus i.v., 1 h, read-out: Brain concentration, Mean): 224 ng/g; concentration at 2 h ([1]; male, CD-1, mouse, brain, 1 mg/kg, 1 mg/kg bolus i.v., 2 h, individual animals 1-3, read-out: Brain concentration): 171 ng/g; concentration at 2 h ([1]; male, CD-1, mouse, brain, 1 mg/kg, 1 mg/kg bolus i.v., 2 h, read-out: Brain concentration, Mean): 169 ng/g; concentration at 4 h ([1]; male, CD-1, mouse, brain, 1 mg/kg, 1 mg/kg bolus i.v., 4 h, individual animals 1-3, read-out: Brain concentration): 107 ng/g; concentration at 4 h ([1]; male, CD-1, mouse, brain, 1 mg/kg, 1 mg/kg bolus i.v., 4 h, read-out: Brain concentration, Mean): 87.8 ng/g; concentration at 6 h ([1]; male, CD-1, mouse, brain, 1 mg/kg, 1 mg/kg bolus i.v., 6 h, individual animals 1-3, read-out: Brain concentration): 39.8 ng/g; concentration at 6 h ([1]; male, CD-1, mouse, brain, 1 mg/kg, 1 mg/kg bolus i.v., 6 h, read-out: Brain concentration, Mean): 40.8 ng/g; concentration at 8 h ([1]; male, CD-1, mouse, brain, 1 mg/kg, 1 mg/kg bolus i.v., 8 h, individual animals 1-3, read-out: Brain concentration): 33.4 ng/g; concentration at 8 h ([1]; male, CD-1, mouse, brain, 1 mg/kg, 1 mg/kg bolus i.v., 8 h, read-out: Brain concentration, Mean): 24.2 ng/g; Kp at 1 h ([1]; male, CD-1, mouse, brain/plasma, iv, 1 mg/kg, 1 mg/kg bolus i.v., 1 h, individual animals 1-3, read-out: Brain/plasma concentration ratio): 0.534; Kp at 1 h ([1]; male, CD-1, mouse, brain/plasma, iv, 1 mg/kg, 1 mg/kg bolus i.v., 1 h, read-out: Brain/plasma concentration ratio, Mean): 0.551; Kp at 2 h ([1]; male, CD-1, mouse, brain/plasma, iv, 1 mg/kg, 1 mg/kg bolus i.v., 2 h, individual animals 1-3, read-out: Brain/plasma concentration ratio): 0.71; Kp at 2 h ([1]; male, CD-1, mouse, brain/plasma, iv, 1 mg/kg, 1 mg/kg bolus i.v., 2 h, read-out: Brain/plasma concentration ratio, Mean): 0.655; Kp at 4 h ([1]; male, CD-1, mouse, brain/plasma, iv, 1 mg/kg, 1 mg/kg bolus i.v., 4 h, individual animals 1-3, read-out: Brain/plasma concentration ratio): 0.87; Kp at 4 h ([1]; male, CD-1, mouse, brain/plasma, iv, 1 mg/kg, 1 mg/kg bolus i.v., 4 h, read-out: Brain/plasma concentration ratio, Mean): 1; Kp at 6 h ([1]; male, CD-1, mouse, brain/plasma, iv, 1 mg/kg, 1 mg/kg bolus i.v., 6 h, read-out: Brain/plasma concentration ratio, Mean): 0.96; Kp ([1]; male, CD-1, mouse, brain/plasma, iv, 1 mg/kg, i.v. 1 mg/kg, read-out: Brain/plasma AUC0-inf ratio): 0.701; Cmax [1, 3]: 553 ng/g; Tmax [1, 3]: 5 min; half-life ([1]; male, CD-1, mouse, iv, brain, i.v. 1 mg/kg, read-out: Apparent t1/2 (converted)): 2.1 h; MRT inf ([1]; male, CD-1, mouse, iv, brain, i.v. 1 mg/kg, read-out: MRT0-inf): 2.96 h; bioavailability [2]: 30.9%; AUC(0-inf) ([2]; iv, 1 mg/kg): 1440 ng·h/mL; AUC(0-t) ([2]; iv, 1 mg/kg): 1420 ng·h/mL; Cmax ([2]; iv, 1 mg/kg): 745 ng/mL; MRT inf ([2]; iv, 1 mg/kg): 1.96 h; Tmax ([2]; iv, 1 mg/kg): 0.25 h; Vd ([2]; iv, 1 mg/kg): 1.36 L/kg; clearance ([2]; iv, 1 mg/kg): 11.6 mL/min/kg; half-life ([2]; iv, 1 mg/kg): 1.35 h; AUC(0-inf) ([2]; po, 3 mg/kg): 1340 ng·h/mL; AUC(0-t) ([2]; po, 3 mg/kg): 1340 ng·h/mL; Cmax ([2]; po, 3 mg/kg): 250 ng/mL; MRT inf ([2]; po, 3 mg/kg): 3.82 h; Tmax ([2]; po, 3 mg/kg): 1 h; half-life ([2]; po, 3 mg/kg): 2.2 h
